From patent US5840835A, “Inhibitors of peptide binding to MHC class II proteins” (Merck & Co., Inc., priority 1996, dated 1998)
Read-outs that look alike come from different tables or passages of the source.

Molecular target: T1, DR1Dw1 (Homo sapiens, UniProt P01903+P01911, A100R/D57E/F55L/F60I/F76Y/I96L/L162R/M171V/P40L/Q125E/R42F/V115G/Y59C)
T1 construct: these are Drosophila transmembrane DR; made in house
Assay: Inhibition of biotinylated RMBP 90-102 peptide binding to MHC class II DR1 (europium-streptavidin capture assay)
Protocol: In studies optimizing the assay it was determined that only between 5 to 10% of the DR molecules are capable of binding added peptide. Therefore, the effective concentration of DR1Dw1 and DR4Dw4 was approximately 0.125 and 1.0 nM, respectively. […] The DR-peptide complexes (50 μL) are transferred to wells of a 96-well EIA plate precoated with LB3.1, the monoclonal antibody which recognizes the DR alleles of MHC Class II, and blocked with PBS with fetal calf serum (FCS). An additional 50 μL of 50 mM Tris, pH 7.0, containing 0.75% octyl glucoside is added to each well and the mixture incubated overnight at 4° C. Excess peptide is removed by washing with PBS containing 0.05% Tween 20 (Polyoxyethylene sorbitan monolaurate) and 0.01% NaN3. Europium-labeled streptavidin (Wallac Inc.) is added and incubated overnight. After washing, complexes are measured by the addition of Enhance™ buffer, the tradename for 0.1M acetate phthalate buffer, pH 3.2, containing 0.1% Triton X-100, tradename for polyoxyethylene ethers and other surface active compounds of Union Carbide Chemicals and Plastics Co., Inc. (particularly, a non-ionic surfactant for recovery of membrane components under non-denaturing conditions) 15 μM 2-naphthoyltrifluoroacetone, and 50 μM tri-N-octylphosphine oxide, which buffer releases the chelated europium from streptavidin and forms a highly fluorescent micellar solution. The resultant fluorescence is measured using a fluorescent plate reader (e.g., DELPHIA, Wallac, Inc.). The data are analyzed using a four-parameter logistical curve […] program (e.g., SigmaPlot) that calculates the concentration of biotinylated peptide giving a half-maximal signal (ED50).
The inhibition assay format is identical to the procedure described above with the exception that the unlabeled antagonist is serially diluted and incubated with constant concentrations of biotinylated RMBP 90-102 (0.3 nM for DR1Dw1 or 0.9 nM for DR4Dw4) and the MHC class II proteins. The concentration of unlabeled compound that prevents 50% of the labeled peptide from binding is the IC50 value. The concentration of the biotinylated RMBP 90-102 in each assay is experimentally determined to be […] one-sixth of its measured ED50 to assure the inhibition was primarily measuring the binding characteristics of the competitor.
In particular, a protocol for carrying out the inhibition assay is given below.
Preparation of antibody plate
Add 115 μL of 5 μg/mL LB3.1 in 50 mM Tris HCl pH 9.6/azide to each well of a Costar EIA plate. Incubate the plate overnight at 4° C.
Wash the plate 4 times with water/0.05% Tween-20/azide. Add 200 μL of PBS/5% FCS/azide for 1 hour at 4° C. to block the plate. The plate may be held at this point for later use or used immediately.
Flip out the block. It is not necessary to wash the plate. At 50 μL of load buffer (50 mM Tris HCl, pH 8.0 0.75% octylglucoside). Add to this volume 50 μL of the reaction mix from day 2, step 3 below.
Preparation of reaction mixture
(1) Add the following to a polypropylene round bottom 96-well plate such as a Costar #3794:
(A) Diluent (Ca Mg free PBS adjusted to pH 6.5 with 0.1M KH2 PO4 /0.75% octylglucoside/azide)0.81 μL
(B) Competitor at 16.6 times the final concentration in diluent or diluent alone 0.9 μL
(C) Biotinylated rat myelin basic protein (BRMBP) 90-102; 1.5 nM for DR1 or 4.5 nM for DR4 (These are 5×stocks of final concentrations of 0.3 nM/DR1 or 0.9 nM/DR4) 30 μL
(D) 6.25 nM DR1Dw1 or 50 nM DR4Dw4 (these are Drosophila transmembrane DR) (This is a 5×stock of the final concentration of 1.25 or 10 nM.) 30 μL Add the DR last and mix well at this time 150 μL
(2) Incubate at 37° C. for 20 min and 5 hours.
(3) Add 50 μL of this reaction mixture to one well of the blocked antibody plate from day 2 above.
(4) Incubate overnight at 4° C. to capture the DR-peptide complexes.
(5) Wash 4× with H2 O/0.05% Tween-20/azide […]

[1] = 20 min incubation at 37° C., 0.3 nM biotinylated RMBP 90-102, 1.25 nM DR1Dw1, pH 6.5, read-out: IC50 /nM @ 20 min
[2] = 5 hours incubation at 37° C., 0.3 nM biotinylated RMBP 90-102, 1.25 nM DR1Dw1, pH 6.5, read-out: IC50 /nM @ 5 Hrs

Substance	IC50 [1]	IC50 [2]
EtOCO-(L)Cha (L)Lys Nva.psi.[trans,cPr]Nle-NH2 TFA SALT [Example 6]	616 nM	–
α-(3-CYCLOHEXYLPROPYL)-(L)(3-PYRIDYL)Ala Nva.psi.[(E)CH=CH]Leu-NH2 TFA SALT [Example 9]	2520 nM	16600 nM
α-(3-CYCLOHEXYLPROPYL)-(L)(ε-NICOTINOYL)Lys Nva.psi.[(E)CH=CH]Leu-NH2 TFA SALT [Example 8]	1050 nM	5600 nM

The next substances have a lower IC50 [1] than those just listed; values first:

IC50 [1]	IC50 [2]	Substance
409 nM	2280 nM	N-(3-CYCLOHEXYLPROPYL)-(L)(ε-NICOTINOYL)Lys Nva.psi.[E,CH=CH]Nle-NH2 TFA SALT [Example 7]
37 nM	194 nM	EtOCO--(L)Cha(L)Lys Nva.psi.[E,CH=CH]Nle-NH2 TFA [Example 4]
21 nM	142 nM	EtOCO-(L)Cha (L)Lys Nva.psi.[(E,CH=CH]Leu-NH2 TFA SALT [Example 5]
